Source: patent US20260365670A1, “EGFR INHIBITORS AND USES THEREOF” (DIZAL (JIANGSU) PHARMACEUTICAL CO., LTD., priority 2022, published 2026)
Like-named read-outs stand apart in the source and are kept apart here.

Legend:
EGFR (C797S L858R) = target: T1, EGFR (C797S L858R) (Homo sapiens, UniProt P00533, C797S/L858R); test: Inhibition of EGFR (C797S L858R) biochemical enzymatic activity (HTRF); conditions: EGFR L858-C797S, 1 mM ATP, 1 h, room temperature, read-out: IC50 (nM) @L858-C797S
T1 construct: purchased signalchem
In short: (§1)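 Enzyme preincubated with compound, then ATP (1 mM) and TK substrate-biotin (1 μM) added; 1 h RT; stopped with EDTA-containing detection mix; HTRF read (ex 320, em 615/665 nm); IC50 by 4-parameter logistic fit.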

EGFR[T790M/C797S/L858R] = target: T2, EGFR[T790M/C797S/L858R] (Homo sapiens, UniProt P00533, C797S/L858R/T790M); test: Inhibition of EGFR[T790M/C797S/L858R] biochemical enzymatic activity (HTRF); conditions: EGFR T790M-C797S-L858R, 1 mM ATP, 1 h, room temperature, read-out: IC50 (nM) @T790M- C797S - L858R
T2 construct: purchased Carna Bio
In short: as §1

EGFR wild type = target: T3, EGFR wild type (Homo sapiens, UniProt P00533); test: Inhibition of EGFR wild type biochemical enzymatic activity (HTRF); conditions: EGFR WT, 1 mM ATP, 1 h, room temperature, read-out: IC50 (nM) @WT
T3 construct: purchased Carna Bio
In short: as §1

EGFR L858R/T790M = target: T4, EGFR L858R/T790M (Homo sapiens, UniProt P00533, L858R/T790M); test: Inhibition of EGFR L858R/T790M biochemical enzymatic activity (HTRF); conditions: EGFR L858R-T790M, 1 mM ATP, 1 h, room temperature, read-out: IC50 (nM) @L858R-T790M
T4 construct: purchased Carna Bio
In short: as §1

[1] = target: T5, EGFR[T790M/C797S/d746-750] (Homo sapiens, UniProt P00533, C797S/DEL746-750/T790M); test: Inhibition of EGFR[T790M/C797S/d746-750] biochemical enzymatic activity (HTRF); conditions: EGFR T790M-C797S-Del19, 1 mM ATP, 1 h, room temperature, read-out: IC50 (nM) @T790M - C797S - Del19
T5 construct: purchased Carna Bio
In short: as §1

EGFR Exon19Del/T790M = target: T6, EGFR Exon19Del/T790M (Homo sapiens, UniProt P00533, DEL746-750/T790M); test: Inhibition of EGFR Exon19Del/T790M biochemical enzymatic activity (HTRF); conditions: EGFR Del19-T790M, 1 mM ATP, 1 h, room temperature, read-out: IC50 (nM) @Del19-T790M
T6 construct: purchased Carna Bio
In short: as §1

PC-9 = test: Cell proliferation assay, PC-9 cells (CellTiter-Glo, 72 hours); assay type: cell-based; conditions: PC9 cells, CellTiter-Glo, read-out: PC9 GI50
In short: (§2)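 GI50 is the concentration giving 50% proliferation inhibition. Growth for this was normalised to a baseline viability reading taken when compound was added, and to DMSO wells. PC-9 (500 cells/well) and mutant-EGFR Ba/F3 (5000 cells/well) are treated after overnight seeding in RPMI1640-based medium.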

[2] = system: Ba/F3 cells expressing EGFR mutations; test: Cell proliferation assay, Ba/F3 cells expressing EGFR mutations (CellTiter-Glo, 72 hours); assay type: cell-based; conditions: CellTiter-Glo
In short: as §2

EGFR (d746-750 C797S) = target: T7, EGFR (d746-750 C797S) (Homo sapiens, UniProt P00533, C797S/DEL746-750); test: Inhibition of EGFR (d746-750 C797S) biochemical enzymatic activity (HTRF); conditions: EGFR Del19-C797S, 1 mM ATP, 1 h, room temperature, read-out: IC50 (nM) @Del19-C797S
T7 construct: purchased signalchem
In short: as §1

A-431 = test: Cell proliferation GI50, A-431 cells (Table 6); assay type: cell-based
EGFR Exon19Del = target: T8, EGFR Exon19Del (Homo sapiens, UniProt P00533, DEL746-750); test: Inhibition of EGFR Exon19Del biochemical enzymatic activity (HTRF); conditions: EGFR Del19, 1 mM ATP, 1 h, room temperature, read-out: IC50 @Del19
T8 construct: purchased Carna Bio
In short: as §1

EGFR L858R = target: T9, EGFR L858R (Homo sapiens, UniProt P00533, L858R); test: Inhibition of EGFR L858R biochemical enzymatic activity (HTRF); conditions: 1 mM ATP, 1 h, room temperature, read-out: IC50 (nM) @L858R
T9 construct: purchased Carna Bio
In short: as §1

[3] = BaF3 cells, EGFR DEL19-C797S, read-out: DEL19-C797S/BaF3 GI50
[4] = BaF3 cells, EGFR DEL19-T790-C797S, read-out: DEL19-T790-C797S/BaF3 GI50
[5] = BaF3 cells, EGFR L858R, read-out: L858R/BaF3 GI50
[6] = BaF3 cells, EGFR L858R-C797S, read-out: L858R-C797S/BaF3 GI50
[7] = BaF3 cells, EGFR L858R-T790-C797S, read-out: L858R-T790-C797S/BaF3 GI50
[8] = BaF3 cells, EGFR L858R-T790M, read-out: L858R-T790M/BaF3 GI50
[9] = EGFR DEL19-T790M, read-out: DEL19-T790M GI50

T2 sequence (P00533 25-1210 T790M/C797S/L858R): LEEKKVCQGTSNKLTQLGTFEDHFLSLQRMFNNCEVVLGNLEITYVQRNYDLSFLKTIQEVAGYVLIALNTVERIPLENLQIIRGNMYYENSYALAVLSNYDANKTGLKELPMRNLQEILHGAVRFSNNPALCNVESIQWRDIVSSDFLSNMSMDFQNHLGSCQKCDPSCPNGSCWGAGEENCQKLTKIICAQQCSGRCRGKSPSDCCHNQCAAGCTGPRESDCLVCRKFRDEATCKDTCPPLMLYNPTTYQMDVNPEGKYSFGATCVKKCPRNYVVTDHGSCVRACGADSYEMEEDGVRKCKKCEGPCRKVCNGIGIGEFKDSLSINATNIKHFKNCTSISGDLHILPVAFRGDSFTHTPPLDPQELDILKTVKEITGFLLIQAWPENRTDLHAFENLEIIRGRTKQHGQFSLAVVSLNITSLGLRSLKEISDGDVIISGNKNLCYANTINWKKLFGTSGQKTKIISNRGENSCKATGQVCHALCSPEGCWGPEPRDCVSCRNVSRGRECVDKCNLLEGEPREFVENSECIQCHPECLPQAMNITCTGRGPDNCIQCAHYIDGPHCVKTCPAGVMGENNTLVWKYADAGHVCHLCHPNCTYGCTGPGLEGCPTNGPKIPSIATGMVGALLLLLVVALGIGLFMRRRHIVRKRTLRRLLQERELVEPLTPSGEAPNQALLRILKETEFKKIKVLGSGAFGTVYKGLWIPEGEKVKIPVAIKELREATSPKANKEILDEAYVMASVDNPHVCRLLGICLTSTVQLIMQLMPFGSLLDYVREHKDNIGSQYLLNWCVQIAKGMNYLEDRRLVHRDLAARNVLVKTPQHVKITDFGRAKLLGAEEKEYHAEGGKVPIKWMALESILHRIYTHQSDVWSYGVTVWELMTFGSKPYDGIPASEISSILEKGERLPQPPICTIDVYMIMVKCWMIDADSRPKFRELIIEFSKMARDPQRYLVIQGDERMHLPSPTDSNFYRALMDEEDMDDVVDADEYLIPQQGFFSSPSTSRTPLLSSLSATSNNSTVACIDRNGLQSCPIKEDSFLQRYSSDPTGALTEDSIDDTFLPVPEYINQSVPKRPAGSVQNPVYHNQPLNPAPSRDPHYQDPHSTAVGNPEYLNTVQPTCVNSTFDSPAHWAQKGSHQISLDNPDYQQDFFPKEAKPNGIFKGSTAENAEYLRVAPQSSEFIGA
T6 sequence (P00533 with tags, fused parts or gaps DEL746-750/T790M limits assumed): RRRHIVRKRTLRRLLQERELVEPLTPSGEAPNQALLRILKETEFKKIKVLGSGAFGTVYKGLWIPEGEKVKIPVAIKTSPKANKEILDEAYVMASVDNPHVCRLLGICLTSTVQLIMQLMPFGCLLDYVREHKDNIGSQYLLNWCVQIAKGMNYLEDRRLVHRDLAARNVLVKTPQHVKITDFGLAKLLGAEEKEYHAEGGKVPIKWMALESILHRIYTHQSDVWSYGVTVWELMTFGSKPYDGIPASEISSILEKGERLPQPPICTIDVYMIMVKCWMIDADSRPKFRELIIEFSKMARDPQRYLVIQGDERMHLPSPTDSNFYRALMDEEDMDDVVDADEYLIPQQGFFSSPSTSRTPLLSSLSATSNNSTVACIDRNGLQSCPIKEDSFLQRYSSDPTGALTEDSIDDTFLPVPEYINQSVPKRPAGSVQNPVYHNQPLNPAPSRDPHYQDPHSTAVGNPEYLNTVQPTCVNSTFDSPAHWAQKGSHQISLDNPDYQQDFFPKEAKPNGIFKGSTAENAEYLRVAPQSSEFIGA
T8 sequence (P00533 with tags, fused parts or gaps DEL746-750 limits assumed): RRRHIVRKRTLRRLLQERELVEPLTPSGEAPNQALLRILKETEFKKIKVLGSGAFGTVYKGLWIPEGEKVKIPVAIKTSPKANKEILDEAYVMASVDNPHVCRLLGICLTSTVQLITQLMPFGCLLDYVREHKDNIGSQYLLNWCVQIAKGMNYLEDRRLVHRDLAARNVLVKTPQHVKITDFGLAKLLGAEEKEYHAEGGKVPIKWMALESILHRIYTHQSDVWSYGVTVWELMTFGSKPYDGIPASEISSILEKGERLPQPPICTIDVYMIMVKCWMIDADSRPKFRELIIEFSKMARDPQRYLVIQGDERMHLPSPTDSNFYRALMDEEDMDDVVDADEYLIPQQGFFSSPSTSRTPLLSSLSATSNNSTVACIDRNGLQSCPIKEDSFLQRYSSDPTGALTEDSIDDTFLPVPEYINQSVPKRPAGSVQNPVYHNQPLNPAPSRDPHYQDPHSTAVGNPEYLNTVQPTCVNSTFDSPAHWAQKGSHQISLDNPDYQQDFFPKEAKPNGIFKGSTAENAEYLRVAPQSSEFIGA
T4 sequence (P00533 25-1210 T790M/L858R): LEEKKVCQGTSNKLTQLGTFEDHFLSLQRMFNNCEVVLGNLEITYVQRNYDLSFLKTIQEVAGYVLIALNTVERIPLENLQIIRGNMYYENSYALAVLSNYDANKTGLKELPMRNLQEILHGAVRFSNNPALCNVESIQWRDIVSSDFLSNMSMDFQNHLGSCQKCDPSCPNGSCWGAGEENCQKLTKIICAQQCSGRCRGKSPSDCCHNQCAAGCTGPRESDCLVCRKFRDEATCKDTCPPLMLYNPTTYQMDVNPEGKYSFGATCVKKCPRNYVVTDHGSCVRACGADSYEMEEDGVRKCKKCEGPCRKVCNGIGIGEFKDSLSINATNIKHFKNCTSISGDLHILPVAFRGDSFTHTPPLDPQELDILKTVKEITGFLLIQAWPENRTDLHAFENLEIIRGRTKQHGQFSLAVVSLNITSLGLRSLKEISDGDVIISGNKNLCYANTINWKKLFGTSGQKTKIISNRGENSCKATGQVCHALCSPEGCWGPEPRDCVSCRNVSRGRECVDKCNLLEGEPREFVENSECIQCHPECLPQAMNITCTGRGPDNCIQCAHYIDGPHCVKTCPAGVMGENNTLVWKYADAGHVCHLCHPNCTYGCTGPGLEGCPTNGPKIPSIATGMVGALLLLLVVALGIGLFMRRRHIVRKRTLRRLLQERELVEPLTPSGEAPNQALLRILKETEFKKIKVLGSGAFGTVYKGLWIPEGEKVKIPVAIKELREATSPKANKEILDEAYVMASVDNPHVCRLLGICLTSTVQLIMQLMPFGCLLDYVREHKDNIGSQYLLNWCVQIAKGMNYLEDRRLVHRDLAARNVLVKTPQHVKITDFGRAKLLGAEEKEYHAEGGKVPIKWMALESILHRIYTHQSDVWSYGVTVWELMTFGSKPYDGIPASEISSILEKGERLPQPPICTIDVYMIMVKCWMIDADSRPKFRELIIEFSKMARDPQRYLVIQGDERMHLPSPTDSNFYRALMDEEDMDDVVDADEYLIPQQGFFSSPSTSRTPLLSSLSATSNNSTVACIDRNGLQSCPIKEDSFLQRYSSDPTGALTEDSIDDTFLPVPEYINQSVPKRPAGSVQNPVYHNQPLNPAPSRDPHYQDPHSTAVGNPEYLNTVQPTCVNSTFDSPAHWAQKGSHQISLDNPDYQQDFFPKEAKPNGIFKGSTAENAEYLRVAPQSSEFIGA
T3 sequence (P00533 25-1210): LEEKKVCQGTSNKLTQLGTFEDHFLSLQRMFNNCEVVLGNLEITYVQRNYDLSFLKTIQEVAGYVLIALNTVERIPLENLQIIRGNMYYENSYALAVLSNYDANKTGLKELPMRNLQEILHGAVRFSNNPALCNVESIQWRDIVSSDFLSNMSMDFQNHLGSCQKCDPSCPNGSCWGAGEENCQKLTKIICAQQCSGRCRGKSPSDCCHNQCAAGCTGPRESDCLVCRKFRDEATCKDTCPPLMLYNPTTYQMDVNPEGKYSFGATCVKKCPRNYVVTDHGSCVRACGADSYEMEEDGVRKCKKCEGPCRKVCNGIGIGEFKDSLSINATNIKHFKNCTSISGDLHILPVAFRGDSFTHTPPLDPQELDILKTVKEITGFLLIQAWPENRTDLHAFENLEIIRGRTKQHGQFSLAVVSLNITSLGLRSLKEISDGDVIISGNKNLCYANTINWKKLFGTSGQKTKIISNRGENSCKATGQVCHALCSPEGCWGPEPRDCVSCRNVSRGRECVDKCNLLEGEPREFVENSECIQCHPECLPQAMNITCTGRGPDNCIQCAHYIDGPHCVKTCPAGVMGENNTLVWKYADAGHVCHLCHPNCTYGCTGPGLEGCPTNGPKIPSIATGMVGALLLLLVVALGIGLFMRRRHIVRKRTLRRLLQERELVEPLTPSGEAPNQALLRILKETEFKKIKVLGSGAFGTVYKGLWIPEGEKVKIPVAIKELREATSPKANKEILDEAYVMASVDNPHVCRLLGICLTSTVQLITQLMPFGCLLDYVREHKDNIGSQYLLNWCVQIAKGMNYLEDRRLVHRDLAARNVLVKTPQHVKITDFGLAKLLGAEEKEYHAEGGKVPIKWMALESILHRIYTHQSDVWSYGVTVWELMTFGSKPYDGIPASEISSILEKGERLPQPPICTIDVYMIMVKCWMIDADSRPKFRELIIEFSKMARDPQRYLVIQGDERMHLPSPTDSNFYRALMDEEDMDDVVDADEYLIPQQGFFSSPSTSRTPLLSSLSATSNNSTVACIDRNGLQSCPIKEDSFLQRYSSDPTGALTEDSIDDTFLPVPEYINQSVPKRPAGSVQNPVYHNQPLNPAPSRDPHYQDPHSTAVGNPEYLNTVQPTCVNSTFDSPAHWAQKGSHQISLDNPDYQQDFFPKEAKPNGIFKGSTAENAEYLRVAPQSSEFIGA

Question: Which results are given for CCC1CCCOc2c(cnn2C)-c2cc(cn(C)c2=O)C(=O)Nc2nc3ccc(N4CCN(C)CC4)cc3n2C1 (single isomer, unassigned) [Example A16B, 11-Ethyl-5,26-dimethyl-16-(4-methylpiperazin-1-yl)-7-oxa-4,5,13,20,22,26-hexaazapentacyclo[22.3.1.0^{2,6}.0^{13,21}.0^{14,19}]octacosa-1(28),2(6),3,14,16,18,20,24-octaene-23,27-dione]?
Answer: IC50 (EGFR (C797S L858R)): 16 nM; IC50 (EGFR[T790M/C797S/L858R]): 14 nM; IC50 (EGFR wild type): 288 nM; IC50 (EGFR L858R/T790M): 22 nM; IC50 [1]: 10 nM; IC50 (EGFR Exon19Del/T790M): 12 nM; GI50 (PC-9): 73 nM; GI50 [2, 3]: 5.2 nM; GI50 [2, 4]: 24 nM; GI50 [2, 5]: 21 nM; GI50 [2, 6]: 19 nM; GI50 [2, 7]: 17 nM; GI50 [2, 8]: 53 nM; GI50 [2, 9]: 29 nM; IC50 (EGFR (d746-750 C797S)): 3.2 nM; GI50 (A-431; A-431 cells): 664 nM; IC50 (EGFR Exon19Del): 5.5 nM; IC50 (EGFR L858R): 28 nM

Question: With COCCN(C)c1ccc2nc3n(c2c1)C12CCC(CN(CCOc4c(cnn4C)-c4cc(cn(C)c4=O)C(=O)N3)C1)C2 (single isomer, unassigned) [Example A90B] as the molecule, how does the IC50 (EGFR (C797S L858R)) read?
Answer: 31 nM

Question: What about the IC50 (EGFR[T790M/C797S/L858R]) of the same molecule?
Answer: 9.3 nM

Question: What about the IC50 (EGFR wild type) of the same molecule?
Answer: 825 nM

Question: And the IC50 (EGFR L858R/T790M)?
Answer: 10 nM

Question: What about the IC50 [1] of the same molecule?
Answer: 4.9 nM

Question: And the IC50 (EGFR Exon19Del/T790M)?
Answer: 5.9 nM

Question: What about the GI50 (PC-9) of the same molecule?
Answer: 46 nM

Question: What about the GI50 [2, 3] of the same molecule?
Answer: 0.75 nM

Question: What about the GI50 [2, 4] of the same molecule?
Answer: 3.9 nM

Question: What about the GI50 [2, 5] of the same molecule?
Answer: 4.6 nM

Question: And the GI50 [2, 6]?
Answer: 8 nM

Question: What about the GI50 [2, 7] of the same molecule?
Answer: 15 nM

Question: What about the GI50 [2, 8] of the same molecule?
Answer: 14 nM

Question: And the GI50 [2, 9]?
Answer: 3.2 nM

Question: And the IC50 (EGFR (d746-750 C797S))?
Answer: 3.5 nM

Question: What about the GI50 (A-431; A-431 cells) of the same molecule?
Answer: 3160 nM

Question: And the IC50 (EGFR Exon19Del)?
Answer: 6.3 nM

Question: What about the IC50 (EGFR L858R) of the same molecule?
Answer: 54 nM

Question: What does the source list for CN(C)C1CN(c2ccc3nc4n(c3c2)C23CCC(CN(CCOc5c(cnn5C)-c5cc(cn(C)c5=O)C(=O)N4)C2)C3)CC1F (single isomer, unassigned) [Example A84A, 15,21-Dimethyl-5-[4-fluoro-3-(N,N-dimethylamino)pyrrolidinyl]-23-oxa-2,9,11,15,20,21,26-heptaazaheptacyclo[24.4.1.1^{1,28}.1^{13,17}.0^{2,10}.0^{3,8}.0^{18,22}]tritriaconta-3,5,7,9,13,17(33),18(22),19-octaene-12,16-dione]?
Answer: IC50 (EGFR (C797S L858R)): 1180 nM; IC50 (EGFR[T790M/C797S/L858R]): > 5000 nM; IC50 (EGFR wild type): > 5000 nM; IC50 (EGFR L858R/T790M): > 5000 nM; IC50 [1]: > 5000 nM; IC50 (EGFR Exon19Del/T790M): > 5000 nM; GI50 (PC-9): 214 nM; GI50 [2, 3]: 98 nM; GI50 [2, 4]: 232 nM; GI50 [2, 5]: 311 nM; GI50 [2, 6]: 190 nM; GI50 [2, 7]: 362 nM; GI50 [2, 8]: 402 nM; GI50 [2, 9]: 171 nM; IC50 (EGFR (d746-750 C797S)): 258 nM; GI50 (A-431; A-431 cells): 3990 nM; IC50 (EGFR Exon19Del): 226 nM; IC50 (EGFR L858R): 830 nM

Question: Cn1ncc2c1OCCN1CC3CCC(CC3)(C1)n1c(nc3ccccc31)NC(=O)c1cc-2c(=O)n(C)c1 [Example A100, 15,21-Dimethyl-23-oxa-2,9,11,15,20,21,26-heptaazaheptacyclo[26.2.2.1^{1,26}.1^{13,17}.0^{2,10}.0^{3,8}.0^{18,22}]tetratriaconta-3,5,7,9,13,17(34),18(22),19-octaene-12,16-dione] was tested. Which IC50 (EGFR (C797S L858R)) did it give?
Answer: 1760 nM

Question: What about the IC50 (EGFR[T790M/C797S/L858R]) of the same molecule?
Answer: 2950 nM

Question: And the IC50 (EGFR wild type)?
Answer: > 5000 nM

Question: And the IC50 (EGFR L858R/T790M)?
Answer: 3520 nM

Question: What about the IC50 [1] of the same molecule?
Answer: 26 nM

Question: And the IC50 (EGFR Exon19Del/T790M)?
Answer: 25 nM

Question: What about the GI50 (PC-9; Homo sapiens, PC-9, 72 h) of the same molecule?
Answer: 144 nM

Question: And the GI50 ([2]; Mus musculus, BaF3, 72 h, BaF3 cells, EGFR DEL19-C797S, read-out: DEL19-C797S/BaF3 GI50)?
Answer: 27 nM

Question: What about the GI50 ([2]; Mus musculus, BaF3, 72 h, BaF3 cells, EGFR DEL19-T790-C797S, read-out: DEL19-T790-C797S/BaF3 GI50) of the same molecule?
Answer: 56 nM

Question: What about the GI50 ([2]; Mus musculus, BaF3, 72 h, BaF3 cells, EGFR L858R, read-out: L858R/BaF3 GI50) of the same molecule?
Answer: 142 nM

Question: What about the GI50 ([2]; Mus musculus, BaF3, 72 h, BaF3 cells, EGFR L858R-C797S, read-out: L858R-C797S/BaF3 GI50) of the same molecule?
Answer: 160 nM

Question: What about the GI50 ([2]; Mus musculus, BaF3, 72 h, BaF3 cells, EGFR L858R-T790-C797S, read-out: L858R-T790-C797S/BaF3 GI50) of the same molecule?
Answer: 129 nM

Question: And the GI50 ([2]; Mus musculus, BaF3, 72 h, BaF3 cells, EGFR L858R-T790M, read-out: L858R-T790M/BaF3 GI50)?
Answer: 535 nM

Question: What about the GI50 ([2]; Mus musculus, BaF3, 72 h, EGFR DEL19-T790M, read-out: DEL19-T790M GI50) of the same molecule?
Answer: 78 nM

Question: What about the IC50 (EGFR (d746-750 C797S)) of the same molecule?
Answer: 120 nM

Question: And the GI50 (A-431; Homo sapiens, A-431, A-431 cells)?
Answer: 6000 nM

Question: What about the IC50 (EGFR Exon19Del) of the same molecule?
Answer: 97 nM

Question: What about the IC50 (EGFR L858R) of the same molecule?
Answer: 2500 nM
